Columns and labels:
RhoA = experiment: GST-RBD pull-down for active RhoA (GTP-RhoA) detection; assay type: cell-based, human; details: MnCl2 treatment
Procedure: GST-RBD recombinant protein was purified from BL21 (DE3) Escherichia coli and affinity conjugated to glutathione sepharose beads (Pharmacia). For GST affinity pull-down, 10^7 cells were lysed in 1 ml Weak Lysis Buffer (Beyotime) supplemented with protease inhibitors (Roche). Cell lysates were centrifuged at 15,000 g at 4° C. for 20 min to remove cell debris. Cell lysates were incubated in sepharose beads conjugated with 1 μg GST-RBD and incubate at 4° C. for 2 h with constant agitation, and precipitated by centrifugation at 1,000 r.p.m. for 10 min. After three washes, beads were collected by centrifugation and boiled in 2× SDS loading buffer for 5 min. The active RhoA was determined by western blotting.

YAP/TAZ [1] = experiment: YAP/TAZ nuclear exportation in HUVECs; assay type: cell-based, human
ApoE−/− mice = experiment: Oral administration of MnCl2 in ApoE-/- mice on Western diet, Oil Red O staining of atherosclerotic plaques; assay type: in vivo, mouse; details: Western diet 12 weeks, MnCl2 oral in drinking water 5 mg/kg body weight
Procedure: ApoE^−/− mice (male, 12 weeks old) were fed a Western diet, and MnCl2 was administered through voluntary water consumption. Water consumption rate was predetermined by monitoring the volume of water remained. MnCl2 was supplemented to drinking water to achieve 5 mg/kg body weight. Mice body weight and water consumption were adjusted weekly to adapt to the change of body weight and water consumption. After feeding on the Western diet for 3 months, the mice were killed and the atherosclerotic plaque formation was determined by Oil Red O staining.
The ApoE^−/− mice were killed by CO2 asphyxiation. Mouse aortas were dissected in cold PBS and cut open to expose the atherosclerotic plaques. After fixation in 4% formaldehyde for 16 h at 4° C., the tissues were first rinsed in water for 10 min and then in 60% isopropanol. The aortas were stained with Oil Red O for 15 min with gentle shaking, and rinsed again in 60% isopropanol and then in water for three rinses. The samples were fixed on the cover slides with the endothelial surface facing upwards. The images were recorded using an HP Scanjet G4050. The plaque areas were determined using National Institutes of Health ImageJ software and calculated by expressing the plaque area relative to the total vascular area.

YAP = YAP phosphorylation (Ser127, pYAP) by immunoblotting in HUVECs; assay type: cell-based, human
Procedure: Cells or tissues were homogenized in cold RIPA lysis buffer supplemented with complete protease inhibitors cocktail and phosSTOP phosphatase inhibitor (Roche). The protein concentration was determined using Bradford Assay (Bio-Rad). Ten micrograms of protein were resolved by SDS-polyacrylamide gel electrophoresis and transferred to the PVDF membrane (Bio-Rad). Target protein was detected using specific primary antibody. Bound antibodies were detected by horseradish-peroxidase-conjugated secondary antibody and visualized by enhanced chemiluminescence (Cell Signaling Technology). Experiments were repeated three times and the target protein level was quantified by imageJ and normalized to internal control (or pYAP was normalized by total YAP) (FIGS. 10 and 11).
(§1) HUVECs and human aortic ECs were purchased from Lonza (EGM, Clonetics, Lonza, Walkersville, Md., USA). Lonza guarantees that the cells express CD31/105, von Williebrand Factor VIII, and are positive for acetyated low density lipoprotein uptake. Mycoplasma contamination was not tested during the experiments. HUVECs maintained in EGM supplemented with EGS and FBS at 37° C. in an incubator with 95% humidified air and 5% CO2 and passed every 3 days. Cells within seven passages were used in in vitro study.

YAP/TAZ [2] = experiment: YAP/TAZ reporter (8xGTIIC-luc) gene activity in HUVECs; assay type: cell-based, human
YAP/TAZ [3] = experiment: YAP/TAZ reporter gene activity assay of anti-atherosclerotic agents (YAP/TAZ inhibition test); assay type: cell-based, human; details: working concentrations of Table 1: apelin 100 nM, ApoA1 10 μg/mL, niacin 3 to 5 mM, statins 1-10 μM
Excerpt: Adenovirus-mediated reporter system and immortalized human aortic endothelial cells (HAECs) are used for drug screening. […] Endothelial cells express specific receptors that determine their unique response to different drug treatment. Therefore, it is necessary to use endothelial cells to study the YAP/TAZ inhibitory effect of lead drugs. Since primary endothelial cells from different donors contain distinct genetic background, which might cause significant variation between different batches of experiments, the immortalized human aortic endothelial cells are used. However, endothelial cells are difficult to be transformed, which could delay research progress and increase cost. To overcome this problem, the inventors have generated adenoviral expressing YAP/TAZ luciferase reporter and renilla internal control. The entire screening process can be completed in two days.

YAP/TAZ [4] = experiment: YAP/TAZ target gene expression (CTGF, CYR61), quantitative real-time PCR in HUVECs; assay type: cell-based, human; details: CTGF and CYR61
Procedure: RNA was extracted by using TRIzol Reagent (Thermo) according to the manufacturer's protocol. cDNA was synthesized using a High-Capacity cDNA Reverse Transcription Kit (Thermo). Quantitative PCR was performed using SYBR Select (Thermo) following the manufacturer's protocol. GAPDH was used as the internal control. Primers used for quantitative real-time PCR were included in Table 2.
as §1

## [Cl][Mn][Cl] [MnCl2]
RhoA
  GTP-RhoA (active RhoA): GTP-RhoA suppression
YAP/TAZ [1]
  YAP/TAZ nuclear exportation: induced YAP/TAZ nuclear exportation
ApoE−/− mice
  atherosclerotic plaque formation: reduced plaque formation
YAP; MnCl2 0.5 mM
  YAP phosphorylation (pYAP): increased pYAP
YAP/TAZ [2]
  YAP/TAZ reporter gene activity: reduced YAP/TAZ reporter gene activity

## O=C(O)c1cccnc1 [niacin, Nicotinic acid]
YAP/TAZ [3]
  YAP/TAZ activity (reporter gene): suppressed YAP/TAZ activity

## Apelin
YAP/TAZ [3]
  YAP/TAZ activity (reporter gene): suppressed YAP/TAZ activity

## ApoA1
YAP/TAZ [3]
  YAP/TAZ activity (reporter gene): suppressed YAP/TAZ activity

## GRGDSP
YAP; GRGDSP 100 μg ml−1
  YAP phosphorylation (pYAP): increased pYAP
YAP/TAZ [4]
  YAP/TAZ target gene expression: suppressed YAP/TAZ target gene expression

— patent US20180153993A1, “COMPOSITIONS AND METHODS FOR TREATMENT AND PREVENTION OF CARDIOVASCULAR DISEASES” (The Chinese University of Hong Kong, priority 2016, published 2018)
